The text below walks through data of patent publication US20050119188A1, “Method of treating breast cancer” (priority 2003, published 2005).

Like-named read-outs stand apart in the source and are kept apart here.

For test [1], the system named is MCF-7 cells. The experiment in a line: Growth studies in vitro: estrogen-stimulated MCF-7 cell proliferation (CellTiter-Glo luminescent viability assay). The note with it: for IC50: single agent, E2 (1 nM)-stimulated MCF-7 cells, Day 6, read-out: IC50 value, inhibition of MCF-7 cell growth; for inhibition at 0.1 µM: read-out: inhibited cell proliferation. The test is classed as cell-based, human. As to the method: Cell lines. MCF-7 cells were provided from Dr. A. Brodie (University of Maryland School of Medicine, Baltimore, Md.) and cultured in DMEM supplemented with 5% fetal bovine serum (FBS) and 1% penicillin/streptomycin (P/S). MCF-7arom cells were provided from Dr. S. Chen (Beckman Research Institute of the City of Hope, Duarte, Calif.) and cultured in DMEM supplemented with 5% FBS and 750 μg/ml geneticin.
Growth studies in vitro. Six days prior to plating in 96-well plates, MCF-7 cells growing in T-75 flasks (30-50% confluent) were washed extensively with phenyl red-free DPBS and transferred to estrogen-depleted medium. Estrogen-depleted medium was phenyl red-free DMEM/F-12 containing 10% heat-treated and dextran-coated charcoal-treated fetal bovine serum and 1% penicillin/streptomycin solution. Estrogen depleted media was refreshed 3 days prior to plating. On Day 0, cells were seeded (1,200 cells/well) into 96-well plates in estrogen-depleted medium and allowed to attach. On Day 1 the media was aspirated and replaced in 6-well replicates with estrogen-depleted medium supplemented with E2 (1 nM), and 4-OH Tamoxifen (Sigma Chemical Company, St Louis, Mo. in the range 10 nM-10 μM), or Fulvestrant (Tocris, Ellisville, Mo. in the range 10 nM-1.0 μM), FTI (in the range 10 nM-10 μM), and a combination of the antiestrogens and FTI. Media containing drugs was refreshed on Day 3. The effects of treatment on cell proliferation were determined on Day 6 using the CellTiter-Glo luminescent viability assay (Promega Corp., Madison, Wis.).

Test [2] has as its system MCF-7arom breast tumor xenografts. In words: MCF-7arom breast tumor xenograft growth in vivo, FTI plus Letrozole. Also noted: species or system athymic nude mice. The note with it: Day 10 of treatment. As to the method: (§1) Growth Studies in vivo. Female ovariectomized athymic nude mice were obtained from Charles River Laboratories (Worcester, Mass.). Androstenedione (Δ4A) pellets (25 mg and 15 mg, 90-day slow release) and 17β-estradiol (E2) pellets (0.72 mg, 60-day slow release) were from Innovative Research of America (Saratoga, Fla.). Anastrozole and Letrozole were obtained from Sequoia Research Products, Oxford, United Kingdom) and Tamoxifen was from Sigma Chemical Company.
(§2) To determine the effect of combined FTI plus Letrozole on the growth of MCF-7arom breast tumor xenografts, 5×10^6 MCF-7arom cells were inoculated into the right flank of the animals in 100 μl of Matrigel. Animals had been implanted with a 15 mg, 90-day Δ4A pellet the previous day. Fourteen days after cell inoculation, the animals were grouped (n=10) for treatment with: • 1) Vehicle • 2) Letrozole (2.5 mpk, p.o., once a day [q.d.]) • 3) FTI (20 mpk, p.o., b.i.d.) • 4) FTI (40 mpk, p.o., b.i.d.) • 5) FTI (20 mpk, p.o., b.i.d.)+Letrozole (2.5 mpk, p.o., q.d.) • 6) FTI (40 mpk, p.o., b.i.d.)+Letrozole (2.5 mpk, p.o., q.d.)
(§3) Treatment was continued for 28 days and tumor volumes were measured twice a week with calipers as described above.

Test [3] shares this test system. In words: MCF-7arom breast tumor xenograft growth in vivo, FTI plus Anastrozole. The arrangement: species or system athymic nude mice. The note with it: for induction of tumor regression / tumor regression: 28 days; for inhibited tumor growth compared to vehicle-treated animals: 28 days of treatment. The procedure: as §1
MCF-7arom breast tumor growth was performed as described previously (Lu et al., 1999, Breast Cancer Res. Treat., 57, 183-192; Long et al., 2002, Clin Cancer Res., 8, 2378-2388) with minor modifications. To determine the effect of combined FTI plus Anastrozole on the growth of MCF-7arom breast tumor xenografts, 2.5×10^6 MCF-7arom cells were inoculated into the right flank of the animals in 100 μl of Matrigel (BD Biosciences, Bedford, Mass.). Animals had been implanted with a 25 mg, 90-day Δ4A pellet the previous day. Fourteen days after cell inoculation, the animals were grouped (n=10) for treatment with: • 1) Vehicle • 2) Anastrozole (5 mg per kg [mpk], orally [p.o.], twice a day [b.i.d.]) • 3) FTI (20 mpk, p.o., b.i.d.) • 4) FTI (40 mpk, p.o., b.i.d.) • 5) FTI (60 mpk, p.o., b.i.d.) • 6) FTI (20 mpk, p.o., b.i.d.)+Anastrozole (5 mpk, p.o., b.i.d.) • 7) FTI (40 mpk, p.o., b.i.d.)+Anastrozole (5 mpk, p.o., b.i.d.) • 8) FTI (60 mpk, p.o., b.i.d.)+Anastrozole (5 mpk, p.o., b.i.d.)
Treatment was continued for 28 days and tumor volumes were measured twice a week with calipers. Tumor volumes and animal body weights were recorded using LABCAT (Innovative Programming Associates Inc., Princeton, N.J.). Tumor volumes were calculated by the formula (w×l×h)/2.

Test [4] shares this test system. The experiment in a line: MCF-7arom breast tumor xenograft growth in vivo, FTI plus Tamoxifen. The arrangement: species or system athymic nude mice. The note with it: Day 10 of treatment. The procedure:
as §1
as §2, with “Tamoxifen” for “Letrozole”, “Tamoxifen (25” for “Letrozole (2.5”, “q.d.)” for “once a day [q.d.])”, “b.i.d.)+Tamoxifen (25” for “b.i.d.)+Letrozole (2.5”
as §3

Test [5] concerns MCF-7 breast tumor xenografts. In words: Estrogen-stimulated MCF-7 breast tumor xenograft growth in vivo, FTI plus Tamoxifen. Also noted: species or system athymic nude mice. As to the method: as §1
MCF-7 breast tumor growth was performed as described previously (Osborne et al., 1995, J. Natl Cancer Inst., 87, 746-750) with minor modifications. To determine the effect of combined FTI plus Tamoxifen on the growth of MCF-7 breast tumor xenografts, 5.0×10^6 MCF-7 cells were inoculated into the right flank of the animals in 100 μl of Matrigel. Animals had been implanted with a 0.72 mg, 60-day pellet the previous day. Fourteen days after cell inoculation, the animals were grouped for treatment with: • 1) Vehicle • 2) Tamoxifen (25 mpk, p.o., q.d.) • 3) FTI (20 mpk, p.o., b.i.d.) • 4) FTI (40 mpk, p.o., b.i.d.) • 5) FTI (20 mpk, p.o., b.i.d.)+Tamoxifen (25 mpk, p.o., q.d.) • 6) FTI (40 mpk, p.o., b.i.d.)+Tamoxifen (25 mpk, p.o., q.d.)
as §3

What is called IC50 is the midpoint of a concentration-inhibition curve.

With `CC/C(=C(\c1ccc(O)cc1)c1ccc(OCCN(C)C)cc1)c1ccccc1` [4-OH Tamoxifen, reference compound], in test [1], the IC50 was 450 nM. For the same compound, the inhibited cell proliferation in test [1] (single-agent 4-OH Tamoxifen 1.0 μM (FIG. 1)) is 55%.
`N#Cc1ccc(C(c2ccc(C#N)cc2)n2cncn2)cc1` [Letrozole]: in test [2] (Letrozole 2.5 mpk p.o. q.d.), the inhibited tumor growth is listed as 127% and the tumor regression was 25%.
For the compound `CC(C)(C#N)c1cc(Cn2cncn2)cc(C(C)(C)C#N)c1` [Anastrozole, reference compound], the “induction of tumor regression” value in test [3] (Anastrozole 5 mpk b.i.d.) is recorded as “did not induce tumor regression”. Moreover, the “inhibited tumor growth compared to vehicle-treated animals” value in test [3] (Anastrozole 5 mpk p.o. b.i.d.) came to 62%.
As to `NC(=O)N1CCC(CC(=O)N2CCC([C@H]3c4ncc(Br)cc4CCc4cc(Cl)cc(Br)c43)CC2)CC1` [FTI], in test [1] (Homo sapiens, MCF7, 144 h), the IC50 came to 40 nM. Besides, the inhibition at 0.1 µM is 56% in test [1] (Homo sapiens, MCF7, single-agent FTI 0.1 μM, 4-OH Tamoxifen experiment (FIG. 1)) and 43% in test [1] (Homo sapiens, MCF7, single-agent FTI 0.1 μM, Fulvestrant experiment (FIG. 2)). In addition, the “induction of tumor regression” value in test [3] (FTI 20 mpk b.i.d.) was “did not induce tumor regression”. In addition, the “inhibited tumor growth compared to vehicle-treated animals” value in test [3] (FTI 20 mpk p.o. b.i.d.) amounted to 56%. In addition, the results for the tumor regression in test [3] (single-agent FTI 40 mpk b.i.d.) and in test [3] (single-agent FTI 60 mpk b.i.d.) were 16% and 40%, respectively. Besides, the inhibited tumor growth in test [2] (FTI 40 mpk p.o. b.i.d.) and in test [4] (FTI 40 mpk p.o. b.i.d.) was 16% in each case. Further, the “tumor regression, % of initial starting volume” value in test [5] (single-agent FTI 40 mpk b.i.d., Day 14 of treatment) is recorded as 57%.
For `C[C@]12CC[C@@H]3c4ccc(O)cc4C[C@@H](CCCCCCCCC[S+]([O-])CCCC(F)(F)C(F)(F)F)[C@H]3[C@@H]1CC[C@@H]2O` (stereo partly shown) [Fulvestrant, reference compound], the inhibition at 0.1 µM in test [1] (Homo sapiens, MCF7, single-agent Fulvestrant 0.1 μM (FIG. 2)) came to 53%.
For `CC/C(=C(\c1ccccc1)c1ccc(OCCN(C)C)cc1)c1ccccc1` [Tamoxifen, reference compound], the inhibited tumor growth came out at 22% in test [4] (Tamoxifen 25 mpk p.o. q.d.) and 29% in test [5] (Tamoxifen 25 mpk q.d., 14 days of treatment).
